According to patent publication US20230064809A1, “SUBSTITUTED AMINOQUINOLONES AS DGKALPHA INHIBITORS FOR IMMUNE ACTIVATION” (Bayer Aktiengesellschaft, priority 2019, published 2023):

Assays:
DGKα [1] = target: T1, DGKα (Homo sapiens, UniProt P23743); settings: literature report; cited from earlier work
Target sequence in this assay (P23743 whole entry, species assumed): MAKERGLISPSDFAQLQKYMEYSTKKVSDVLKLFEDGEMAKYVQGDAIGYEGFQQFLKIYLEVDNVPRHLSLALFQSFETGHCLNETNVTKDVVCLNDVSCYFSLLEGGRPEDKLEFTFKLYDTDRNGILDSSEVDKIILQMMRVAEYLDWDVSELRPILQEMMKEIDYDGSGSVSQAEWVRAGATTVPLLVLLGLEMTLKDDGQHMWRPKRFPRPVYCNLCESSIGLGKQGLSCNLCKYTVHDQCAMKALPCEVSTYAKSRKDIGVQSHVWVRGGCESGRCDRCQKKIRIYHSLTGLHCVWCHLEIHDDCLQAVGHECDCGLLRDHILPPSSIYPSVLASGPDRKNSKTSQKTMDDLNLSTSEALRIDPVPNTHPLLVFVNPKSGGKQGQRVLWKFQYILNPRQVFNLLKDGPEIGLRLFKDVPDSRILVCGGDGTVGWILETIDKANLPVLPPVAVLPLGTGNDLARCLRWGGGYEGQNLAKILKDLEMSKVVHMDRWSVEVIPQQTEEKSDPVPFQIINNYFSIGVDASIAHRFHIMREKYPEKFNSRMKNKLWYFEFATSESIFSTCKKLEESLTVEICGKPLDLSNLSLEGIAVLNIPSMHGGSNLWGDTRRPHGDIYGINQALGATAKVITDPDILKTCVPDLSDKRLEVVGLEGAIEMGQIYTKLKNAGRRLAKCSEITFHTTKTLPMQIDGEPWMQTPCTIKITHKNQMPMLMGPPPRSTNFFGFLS

DGKα [2] = target: T1, DGKα; assay: Human DGKα kinase activity inhibition assay (ADP-Glo); assay type: biochemical; parameters: made in house; host or cells: Sf9 insect cells, baculovirus; settings: in vitro, C-terminally FLAG-tagged recombinant full-length human DGKα, 1,2-dioleoyl-sn-glycerol substrate, ADP-Glo readout
Procedure: Human DGKα Kinase Activity Inhibition Assay. Human DGKα inhibitory activity of compounds of the present invention was quantified employing the human DGKα kinase activity assay as described in the following paragraphs. In essence, the enzyme activity was measured by quantification of the adenosine-di-phosphate (ADP) generated as a co-product of the enzyme reaction via the “ADP-Glo™ Kinase Assay” kit from the company Promega. This detection system works as follows: In a first step the ATP not consumed in the kinase reaction is quantitatively converted to […] (“ADP-Glo-reagent”), then the adenylate cyclase is stopped and the ADP generated in the kinase reaction converted to ATP, which subsequently generates in a luciferase-based reaction a glow-luminescence signal (“Kinase Detection Reagent”). C-terminally FLAG-tagged, recombinant full-length human DGKα (expressed in baculovirus infected insect cells, purified using anti-Flag pulldown and size exclusion chromatography as described below, DGKa_hu_1) was used as enzyme. As substrate for the kinase 1,2-dioleoyl-sn-glycerol, reconstituted in octyl-β-D-glucopyranoside micelles, was used. For the preparation of the micelles, 1 volume of a 16.1 mM solution of 1,2-dioleoyl-sn-glycerol (Avanti, Cat. #08001-25G) in chloroform was slowly evaporated using a nitrogen stream. Subsequently, 22.55 volumes of a 510 mM solution of octyl-β-D-glucopyranoside (Sigma-Aldrich, Cat. #08001-10G) in 50 mM MOPS buffer (pH 7.4) were added, and the mixture was sonicated in an ultrasonic bath for 20 s. Then 35 volumes of 50 mM MOPS buffer (pH 7.4) were added to yield a solution of 0.28 mM 1,2 dioleoyl-sn-glycerol and 200 mM octyl-β-D-glucopyranoside, which was aliquoted, flash-frozen in liquid nitrogen, and stored at −20° C. until use. For each experiment, a fresh aliquot was quickly thawed and diluted 24-fold with aqueous assay buffer (described below) containing 95.7 μM adenosine triphosphate (Promega) to yield a 1.67-fold concentrated substrate solution. For the assay 50 nl of a 100-fold concentrated solution of the test compound in dimethyl sulfoxide (DMSO, Sigma) was pipetted into either a white 1536-well or a white low-volume 384-well microtiter plate (both Greiner Bio-One, Frickenhausen, Germany). […] The concentration of DGK a was adjusted depending of the activity of the enzyme lot and was chosen appropriate to have the assay in the linear range, a typical concentration is about 0.1 nM. The reaction was stopped by the addition of 2.5 μl of “ADP-Glo-reagent” (1 to 1.5 diluted with water) and the resulting mixture was incubated at 22° C. for 1 h to convert the ATP no t consumed in the kinase reaction completely to […]. […] The amount of emitted light was taken as a measure for the amount of ADP generated and thereby for the activity of the DGKα.
Target sequence in this assay (P23743 with tags, fused parts or gaps): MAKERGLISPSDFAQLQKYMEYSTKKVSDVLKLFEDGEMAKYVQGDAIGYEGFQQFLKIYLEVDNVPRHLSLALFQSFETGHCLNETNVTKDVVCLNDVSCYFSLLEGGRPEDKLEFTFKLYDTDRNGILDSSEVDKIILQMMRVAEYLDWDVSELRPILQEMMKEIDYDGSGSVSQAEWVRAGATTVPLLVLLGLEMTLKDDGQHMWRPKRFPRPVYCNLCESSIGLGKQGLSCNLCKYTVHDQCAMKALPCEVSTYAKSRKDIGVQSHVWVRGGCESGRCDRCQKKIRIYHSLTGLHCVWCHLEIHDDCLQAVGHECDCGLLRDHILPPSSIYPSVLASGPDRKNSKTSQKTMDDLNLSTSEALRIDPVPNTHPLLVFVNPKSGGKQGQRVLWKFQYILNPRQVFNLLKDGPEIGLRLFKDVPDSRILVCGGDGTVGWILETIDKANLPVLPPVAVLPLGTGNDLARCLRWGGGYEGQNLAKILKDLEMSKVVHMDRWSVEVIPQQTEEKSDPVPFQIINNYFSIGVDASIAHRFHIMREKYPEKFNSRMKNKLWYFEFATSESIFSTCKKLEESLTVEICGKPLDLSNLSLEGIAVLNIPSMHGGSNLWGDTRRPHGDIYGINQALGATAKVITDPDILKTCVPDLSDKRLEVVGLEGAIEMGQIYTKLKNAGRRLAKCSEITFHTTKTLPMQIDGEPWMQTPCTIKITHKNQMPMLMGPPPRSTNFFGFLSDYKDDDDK

SMILES	IC50 (DGKα [2]) [nM]	inhibitory activity on DGKα (DGKα [1])
Cc1ccc2c(C(=O)CN3CCN(C(=O)c4ccco4)CC3)c(C)[nH]c2c1 [AMB639752]		micromolar
O=C1/C(=C\C=C\c2ccco2)SC(=S)N1NS(=O)(=O)c1ccccc1 [CU-3]		sub-micromolar
Cn1c(=O)c(C#N)c(N2CCC3(CN(c4ccc(OC(F)(F)F)cc4)C3)C2)c2ccc(Br)cc21 [Example 29, 7-bromo-1-methyl-2-oxo-4-{2-[4-(trifluoromethoxy)phenyl]-2,6-diazaspiro[3.4]octan-6-yl}-1,2-dihydroquinoline-3-carbonitrile]	46	
Cn1c(=O)c(C#N)c(N2CCC3(CN(c4ccc(Cl)cc4)C3)C2)c2ccc(Br)cc21 [Example 30, 7-bromo-4-[2-(4-chlorophenyl)-2,6-diazaspiro[3.4]octan-6-yl]-1-methyl-2-oxo-1,2-dihydroquinoline-3-carbonitrile]	75	
CN1CCN(c2ccc3c(N4CCC5(CCN(c6cccc(OC(F)(F)F)c6)C5)CC4)c(C#N)c(=O)n(C)c3c2)CC1 [Example 31, 1-methyl-7-(4-methylpiperazin-1-yl)-2-oxo-4-{2-[3-(trifluoromethoxy)phenyl]-2,8-diazaspiro[4.5]decan-8-yl}-1,2-dihydroquinoline-3-carbonitrile]	645	
COCCN(C)c1ccc2c(N3CCC4(CCN(c5cccc(OC(F)(F)F)c5)C4)CC3)c(C#N)c(=O)n(C)c2c1 [Example 32, 7-[(2-methoxyethyl)(methyl)amino]-1-methyl-2-oxo-4-{2-[3-(trifluoromethoxy)phenyl]-2,8-diazaspiro[4.5]decan-8-yl}-1,2-dihydroquinoline-3-carbonitrile]	38	

Further lines, with some results ahead:

IC50 (DGKα [2]) [nM]	SMILES	inhibitory activity on DGKα (DGKα [1])
1170	CN1CCN(c2ccc3c(N4CCC5(CCN(c6cccc(Cl)c6)C5)CC4)c(C#N)c(=O)n(C)c3c2)CC1 [Example 33, 4-[2-(3-chlorophenyl)-2,8-diazaspiro[4.5]decan-8-yl]-1-methyl-7-(4-methylpiperazin-1-yl)-2-oxo-1,2-dihydroquinoline-3-carbonitrile]	
19	COCCN(C)c1ccc2c(N3CCC4(CCN(c5cccc(Cl)c5)C4)CC3)c(C#N)c(=O)n(C)c2c1 [Example 34, 4-[2-(3-chlorophenyl)-2,8-diazaspiro[4.5]decan-8-yl]-7-[(2-methoxyethyl)(methyl)amino]-1-methyl-2-oxo-1,2-dihydroquinoline-3-carbonitrile]	
68	COCCN(C)c1ccc2c(N3CCC4(CCN(c5cccc(OC(F)(F)F)c5)C4)CC3)c(C(N)=O)c(=O)n(C)c2c1 [Example 35, 7-[(2-methoxyethyl)(methyl)amino]-1-methyl-2-oxo-4-{2-[3-(trifluoromethoxy)phenyl]-2,8-diazaspiro[4.5]decan-8-yl}-1,2-dihydroquinoline-3-carboxamide]	
49	COCCN(C)c1ccc2c(N3CCC4(CCN(c5cccc(Cl)c5)C4)CC3)c(C(N)=O)c(=O)n(C)c2c1 [Example 36, 4-[2-(3-chlorophenyl)-2,8-diazaspiro[4.5]decan-8-yl]-7-[(2-methoxyethyl)(methyl)amino]-1-methyl-2-oxo-1,2-dihydroquinoline-3-carboxamide]	
